# Experimental data published in US9695155B2, “Herbicidal substituted pyrimidinyloxy benzene compounds” (E. I. DU PONT DE NEMOURS AND COMPANY, priority 2013, dated 2017).
# What was measured:
# [1] = system: pigweed; experiment: Test A preemergence; assay type: in vivo, Amaranthus retroflexus; settings: for Plant response rating, Pigweed: 0 to 100 scale where 0 is no effect and 100 is complete control
# In short: (§1)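 Compounds in non-phytotoxic solvent with surfactant applied as soil spray preemergence, or postemergence to plants 2-10 cm at one- to two-leaf stage, in loam/sand. After approximately 10 days in greenhouse, injury rated visually versus untreated controls, 0 (no effect) to 100 (complete control).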
# [2] = system: Heteranthera limosa; experiment: Test B flooded paddy test; assay type: in vivo; settings: Flood, 250 g ai/ha, 0 to 100 scale where 0 is no effect and 100 is complete control
# In short: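 Scores from 0 (no effect) to 100 (complete control) are visual comparisons with controls, taken 13 to 15 days after compound was applied into floodwater 3 cm deep around 2-leaf plants.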
# [3] = system: barnyardgrass; experiment: Test C postemergence; assay type: in vivo, Echinochloa crus-galli
# In short: (§2)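 Injury was assessed visually against controls 13 to 15 days after application, with 0 meaning no effect and 100 full control; missing entries are shown as a dash. Preemergence sprays hit seeded loam–sand soil, postemergence sprays hit 1- to 4-leaf plants.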
# [4] = system: blackgrass; experiment: Test C postemergence; assay type: in vivo, Alopecurus myosuroides
# In short: as §2
# [5] = system: kochia; experiment: Test C postemergence; assay type: in vivo, Kochia scoparia
# In short: as §2
# [6] = system: ragweed; experiment: Test C postemergence; assay type: in vivo, Ambrosia elatior; settings: for Ragweed plant response rating: 31 g ai/ha, 13 to 15 days
# In short: as §2
# [7] = system: barnyardgrass; experiment: Test A preemergence; assay type: in vivo, Echinochloa crus-galli; settings: for Plant response rating, Barnyardgrass: 0 to 100 scale where 0 is no effect and 100 is complete control
# In short: as §1
# [8] = system: wheat; experiment: Test A postemergence; assay type: in vivo, Triticum aestivum
# In short: as §1
# [9] = system: wild oat; experiment: Test C postemergence; assay type: in vivo, Avena fatua; settings: for Oat, Wild plant response rating: 31 g ai/ha, 13 to 15 days
# In short: as §2
# [10] = system: pigweed; experiment: Test C postemergence; assay type: in vivo, Amaranthus retroflexus; settings: for Pigweed plant response rating: 31 g ai/ha, 13 to 15 days
# In short: as §2
# [11] = system: morningglory; experiment: Test C postemergence; assay type: in vivo, Ipomoea coccinea; settings: for Morningglory plant response rating: 31 g ai/ha, 13 to 15 days
# In short: as §2
# [12] = system: velvetleaf; experiment: Test C postemergence; assay type: in vivo, Abutilon theophrasti; settings: for Velvetleaf plant response rating: 31 g ai/ha, 13 to 15 days
# In short: as §2
# [13] = 31 g ai/ha, visual, approximately 10 days
# [14] = 4 g ai/ha, postemergence, 0 is no effect, 100 is complete control
# [15] = 8 g ai/ha, postemergence, 0 is no effect, 100 is complete control
# [16] = 16 g ai/ha, postemergence, 0 is no effect, 100 is complete control
# [17] = 31 g ai/ha, postemergence, visual rating, scale 0 to 100 (0 no effect, 100 complete control), 13 to 15 days
# [18] = postemergence, visual rating, scale 0 to 100 (0 no effect, 100 complete control)
smiles,measurement,setting,value
FCc1cccc(Oc2ncc(F)cn2)c1-n1cc(I)cn1 [Compound 152],"Plant response rating, Pigweed",[1]; [13],90
same,"Plant response rating, Pigweed",[1]; 125 g ai/ha,90
same,"Plant response rating, Ducksalad",[2],60
same,"Plant response rating (0 to 100), Barnyardgrass",[3]; [14],0
same,"Plant response rating (0 to 100), Barnyardgrass",[3]; [15],0
same,"Plant response rating (0 to 100), Barnyardgrass",[3]; [16],5
same,Barnyardgrass plant response rating,[3]; [17],5
same,"Plant response rating (0 to 100), Blackgrass",[4]; [14],0
same,"Plant response rating (0 to 100), Blackgrass",[4]; [15],0
same,"Plant response rating (0 to 100), Blackgrass",[4]; [16],0
same,Blackgrass plant response rating,[4]; [17],0
same,"Plant response rating (0 to 100), Kochia",[5]; [15],10
same,"Plant response rating (0 to 100), Kochia",[5]; [16],15
same,Kochia plant response rating,[5]; [17],40
same,"Plant response rating (0 to 100), Ragweed",[6]; [15],15
same,"Plant response rating (0 to 100), Ragweed",[6]; [16],10
same,Ragweed plant response rating,[6]; [18],40
same,"Plant response rating, Barnyardgrass",[7]; [13],20
same,"Plant response rating, Barnyardgrass",[7]; 125 g ai/ha,70
same,"Plant response rating, Wheat","[8]; 31 g ai/ha, 0 to 100 scale, 0 no effect, 100 complete control",20
same,Wheat plant response rating,"[8]; 125 g ai/ha, 0 to 100 scale where 0 is no effect and 100 is complete control",40
same,"Plant response rating (0 to 100), Oat, Wild",[9]; [15],0
same,"Plant response rating (0 to 100), Oat, Wild",[9]; [16],0
same,"Oat, Wild plant response rating",[9]; [18],5
same,"Plant response rating (0 to 100), Pigweed",[10]; [15],30
same,"Plant response rating (0 to 100), Pigweed",[10]; [16],50
same,Pigweed plant response rating,[10]; [18],60
same,"Plant response rating (0 to 100), Morningglory",[11]; [15],0
same,"Plant response rating (0 to 100), Morningglory",[11]; [16],10
same,Morningglory plant response rating,[11]; [18],40
same,"Plant response rating (0 to 100), Velvetleaf",[12]; [15],5
same,"Plant response rating (0 to 100), Velvetleaf",[12]; [16],20
same,Velvetleaf plant response rating,[12]; [18],45
"Clc1cnc(Oc2ccccc2-n2cc(C3CC3)nn2)nc1 [Compound 160, 5-chloro-2-[2-(4-cyclopropyl-1H-1,2,3-triazol-1-yl)phenoxy]pyrimidine]",pest or weed control at 1000 g/ha,"[1]; Amaranthus retroflexus, pre-emergence, 240 h, 1000 g ai/ha, 0 to 100 scale, 0 no effect, 100 complete control, approx. 10 days, read-out: Pigweed plant response rating",100%
same,pest or weed control at 250 g/ha,"[2]; Heteranthera limosa, read-out: Plant response rating, Ducksalad",80%
same,pest or weed control at 16 g/ha,"[3]; Echinochloa crus-galli, post-emergence, 16 g ai/ha, postemergence, 0 is no effect, 100 is complete control, read-out: Plant response rating (0 to 100), Barnyardgrass",5%
same,pest or weed control at 31 g/ha,"[3]; Echinochloa crus-galli, post-emergence, 31 g ai/ha, postemergence, visual rating, scale 0 to 100 (0 no effect, 100 complete control), 13 to 15 days, read-out: Barnyardgrass plant response rating",5%
same,pest or weed control at 125 g/ha,"[3]; Echinochloa crus-galli, post-emergence, 125 g ai/ha, postemergence, visual rating, scale 0 to 100 (0 no effect, 100 complete control), read-out: Plant response rating, Barnyardgrass",5%
same,pest or weed control at 62 g/ha,"[3]; Echinochloa crus-galli, post-emergence, Postemergence, 62 g ai/ha, scale 0 to 100 (0 no effect, 100 complete control), read-out: Plant response rating, Barnyardgrass",5%
same,pest or weed control at 16 g/ha,"[4]; Alopecurus myosuroides, post-emergence, 16 g ai/ha, postemergence, 0 is no effect, 100 is complete control, read-out: Plant response rating (0 to 100), Blackgrass",0%
same,pest or weed control at 31 g/ha,"[4]; Alopecurus myosuroides, post-emergence, 31 g ai/ha, postemergence, visual rating, scale 0 to 100 (0 no effect, 100 complete control), 13 to 15 days, read-out: Blackgrass plant response rating",0%
same,pest or weed control at 125 g/ha,"[4]; Alopecurus myosuroides, post-emergence, 125 g ai/ha, postemergence, visual rating, scale 0 to 100 (0 no effect, 100 complete control), read-out: Plant response rating, Blackgrass",15%
same,pest or weed control at 62 g/ha,"[4]; Alopecurus myosuroides, post-emergence, Postemergence, 62 g ai/ha, scale 0 to 100 (0 no effect, 100 complete control), read-out: Plant response rating, Blackgrass",5%
same,pest or weed control at 16 g/ha,"[5]; Bassia scoparia, post-emergence, 16 g ai/ha, postemergence, 0 is no effect, 100 is complete control, read-out: Plant response rating (0 to 100), Kochia",85%
same,pest or weed control at 31 g/ha,"[5]; Bassia scoparia, post-emergence, 31 g ai/ha, postemergence, visual rating, scale 0 to 100 (0 no effect, 100 complete control), 13 to 15 days, read-out: Kochia plant response rating",90%
same,pest or weed control at 125 g/ha,"[5]; Bassia scoparia, post-emergence, 125 g ai/ha, postemergence, visual rating, scale 0 to 100 (0 no effect, 100 complete control), read-out: Plant response rating, Kochia",100%
same,pest or weed control at 62 g/ha,"[5]; Bassia scoparia, post-emergence, Postemergence, 62 g ai/ha, scale 0 to 100 (0 no effect, 100 complete control), read-out: Plant response rating, Kochia",98%
same,Ragweed plant response rating,[6]; [18],45
same,pest or weed control at 16 g/ha,"[6]; Ambrosia artemisiifolia, post-emergence, 16 g ai/ha, postemergence, 0 is no effect, 100 is complete control, read-out: Plant response rating (0 to 100), Ragweed",10%
same,pest or weed control at 125 g/ha,"[6]; Ambrosia artemisiifolia, post-emergence, 125 g ai/ha, postemergence, visual rating, scale 0 to 100 (0 no effect, 100 complete control), read-out: Plant response rating, Ragweed",70%
same,pest or weed control at 62 g/ha,"[6]; Ambrosia artemisiifolia, post-emergence, Postemergence, 62 g ai/ha, scale 0 to 100 (0 no effect, 100 complete control), read-out: Plant response rating, Ragweed",60%
same,pest or weed control at 1000 g/ha,"[7]; Echinochloa crus-galli, pre-emergence, 240 h, 1000 g ai/ha, 0 to 100 scale, 0 no effect, 100 complete control, approx. 10 days, read-out: Barnyardgrass plant response rating",100%
same,plant injury at 1000 g/ha,"[8]; Triticum aestivum, post-emergence, 240 h, 1000 g ai/ha, 0 to 100 scale, 0 no effect, 100 complete control, read-out: Plant response rating Wheat",100%
same,"Oat, Wild plant response rating",[9]; [18],0
same,pest or weed control at 16 g/ha,"[9]; Avena fatua, post-emergence, 16 g ai/ha, postemergence, 0 is no effect, 100 is complete control, read-out: Plant response rating (0 to 100), Oat, Wild",0%
same,pest or weed control at 125 g/ha,"[9]; Avena fatua, post-emergence, 125 g ai/ha, postemergence, visual rating, scale 0 to 100 (0 no effect, 100 complete control), read-out: Plant response rating, Oat, Wild",0%
same,pest or weed control at 62 g/ha,"[9]; Avena fatua, post-emergence, Postemergence, 62 g ai/ha, scale 0 to 100 (0 no effect, 100 complete control), read-out: Plant response rating, Oat, Wild",0%
same,Pigweed plant response rating,[10]; [18],75
same,pest or weed control at 16 g/ha,"[10]; Amaranthus retroflexus, post-emergence, 16 g ai/ha, postemergence, 0 is no effect, 100 is complete control, read-out: Plant response rating (0 to 100), Pigweed",80%
same,pest or weed control at 125 g/ha,"[10]; Amaranthus retroflexus, post-emergence, 125 g ai/ha, postemergence, visual rating, scale 0 to 100 (0 no effect, 100 complete control), read-out: Plant response rating, Pigweed",85%
same,pest or weed control at 62 g/ha,"[10]; Amaranthus retroflexus, post-emergence, Postemergence, 62 g ai/ha, scale 0 to 100 (0 no effect, 100 complete control), read-out: Plant response rating, Pigweed",75%
same,Morningglory plant response rating,[11]; [18],75
same,pest or weed control at 16 g/ha,"[11]; Ipomoea, post-emergence, 16 g ai/ha, postemergence, 0 is no effect, 100 is complete control, read-out: Plant response rating (0 to 100), Morningglory",5%
same,pest or weed control at 125 g/ha,"[11]; Ipomoea, post-emergence, 125 g ai/ha, postemergence, visual rating, scale 0 to 100 (0 no effect, 100 complete control), read-out: Plant response rating, Morningglory",65%
same,pest or weed control at 62 g/ha,"[11]; Ipomoea, post-emergence, Postemergence, 62 g ai/ha, scale 0 to 100 (0 no effect, 100 complete control), read-out: Plant response rating, Morningglory",75%
same,Velvetleaf plant response rating,[12]; [18],65
same,pest or weed control at 16 g/ha,"[12]; Abutilon theophrasti, post-emergence, 16 g ai/ha, postemergence, 0 is no effect, 100 is complete control, read-out: Plant response rating (0 to 100), Velvetleaf",45%
same,pest or weed control at 125 g/ha,"[12]; Abutilon theophrasti, post-emergence, 125 g ai/ha, postemergence, visual rating, scale 0 to 100 (0 no effect, 100 complete control), read-out: Plant response rating, Velvetleaf",90%
same,pest or weed control at 62 g/ha,"[12]; Abutilon theophrasti, post-emergence, Postemergence, 62 g ai/ha, scale 0 to 100 (0 no effect, 100 complete control), read-out: Plant response rating, Velvetleaf",80%
